Target: T1, IRAK4 (Homo sapiens, UniProt Q9NWZ3)
T1 construct: endogenous in cells; host or cells: THP-1 cells
T1 sequence (Q9NWZ3 1-460): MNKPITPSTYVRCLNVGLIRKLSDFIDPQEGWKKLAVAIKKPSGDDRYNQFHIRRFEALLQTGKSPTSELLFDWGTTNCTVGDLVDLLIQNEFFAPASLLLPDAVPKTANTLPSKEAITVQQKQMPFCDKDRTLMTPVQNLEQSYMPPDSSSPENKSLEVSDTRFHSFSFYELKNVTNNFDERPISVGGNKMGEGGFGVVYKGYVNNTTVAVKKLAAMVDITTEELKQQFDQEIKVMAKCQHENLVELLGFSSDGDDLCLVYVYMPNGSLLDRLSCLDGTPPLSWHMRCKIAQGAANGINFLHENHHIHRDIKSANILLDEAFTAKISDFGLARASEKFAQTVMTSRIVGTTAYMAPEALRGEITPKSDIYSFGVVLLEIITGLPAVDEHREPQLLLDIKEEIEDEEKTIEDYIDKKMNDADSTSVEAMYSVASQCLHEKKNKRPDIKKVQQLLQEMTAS
Assay: LVL THP1 HTRF (THP1 Homogeneous Time Resolved Fluorescence)
Assay type: cell-based
Settings: THP1 cells, 18 h incubation with compound; for DC50: read-out: LVL THP1 HTRF EC50
Procedure, shortened: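 THP-1 cells in phenol red-free RPMI with 10% FBS were dosed with compound (20 nL in DMSO) for 18 h at 37° C. After 2 h lysis, IRAK4 was detected with anti-IRAK4-d2/anti-IRAK4-K HTRF antibodies for 18 h at room temperature and read at 665/615 nm; a parallel CTG plate was run.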

LVL THP1 HTRF YMIN | DC50 | Compound
−1.9% | 0.0087 µM | C[C@H](C#N)Nc1cc(Nc2ncc(C#N)cc2F)ncc1-n1cc([C@H]2CC[C@H](CCN3CCN(c4ccc(N5CCC(=O)NC5=O)cc4)[C@H](C)C3)CC2)nn1 [P-385]
6.7% | 0.0242 µM | C[C@H](C#N)Nc1cc(Nc2ncc(C#N)cc2F)ncc1-n1cc([C@H]2CC[C@H](CCN3CCN(c4ccc(N5CCC(=O)NC5=O)cc4)CC3)CC2)nn1 [P-386]
9.8% | 0.0141 µM | C[C@H](C#N)Nc1cc(Nc2ncc(C#N)cn2)ncc1-n1cc([C@H]2CC[C@H](CCN3CCN(c4ccc(N5CCC(=O)NC5=O)cc4)[C@H](C)C3)CC2)nn1 [P-387]
3.5% | 0.0111 µM | C[C@H](C#N)Nc1cc(Nc2ncc(C#N)cn2)ncc1-n1cc([C@H]2CC[C@H](CCN3CCN(c4ccc(C5CCC(=O)NC5=O)cc4)CC3)CC2)nn1 (stereo partly drawn) [P-388]
18.9% | 0.18 µM | C[C@H](C#N)Nc1cc(Nc2ncc(C#N)cn2)ncc1-n1cc([C@H]2CC[C@H](CCN3CCN(c4ccc(N5CCC(=O)NC5=O)cc4)CC3)CC2)nn1 [P-389]
−0.8% | 0.0037 µM | CC(C)(O)CNc1cc(-n2ncc3cc(C#N)cnc32)ncc1-n1cc([C@H]2CC[C@H](CCN3CCN(c4ccc(C5CCC(=O)NC5=O)cc4)CC3)CC2)nn1 (stereo partly drawn) [P-391]
−3.4% | 0.0061 µM | CC[C@@H]1CN(CC[C@H]2CC[C@H](c3cn(-c4cnc(-n5ncc6cc(C#N)cnc65)cc4N[C@H](C)C#N)nn3)CC2)CCN1c1ccc(N2CCC(=O)NC2=O)cc1 [P-393]
2.6% | 0.0093 µM | CCNc1cc(-n2ncc3cc(C#N)cnc32)ncc1-n1cc([C@H]2CC[C@H](CCN3CCN(c4ccc(C5CCC(=O)NC5=O)cc4)CC3)CC2)nn1 (stereo partly drawn) [P-395]
6.2% | 0.0143 µM | COc1cnc2c(cnn2-c2cc(N[C@H](C)C#N)c(-n3cc([C@H]4CC[C@H](CCN5CCN(c6ccc(C7CCC(=O)NC7=O)cc6)CC5)CC4)nn3)cn2)c1 (stereo partly drawn) [P-397]
5.8% | 0.024 µM | COc1cnc(Nc2cc(N[C@H](C)C#N)c(-n3cc([C@H]4CC[C@H](CCN5CCN(c6ccc(C7CCC(=O)NC7=O)cc6)CC5)CC4)nn3)cn2)nc1 (stereo partly drawn) [P-398]
8.2% | 0.0431 µM | C[C@H](C#N)Nc1cc(-n2ncc3cc(C#N)cnc32)ncc1-n1cc([C@H]2CC[C@H](CCN3CCC(c4ccc(N5CCC(=O)NC5=O)cc4)C(F)C3)CC2)nn1 (stereo partly drawn) [P-399]
0.5% | 0.012 µM | C[C@H](C#N)Nc1cc(-n2ncc3cc(C#N)cnc32)ncc1-n1cc([C@H]2CC[C@H](CCN3CCC(c4ccc(N5CCC(=O)NC5=O)cc4)C(F)(F)C3)CC2)nn1 (stereo partly drawn) [P-401]
1.9% | 0.0033 µM | N#Cc1cnc2c(cnn2-c2cc(N[C@H]3CCC[C@H]3O)c(-n3cc([C@H]4CC[C@H](CCN5CCN(c6ccc(C7CCC(=O)NC7=O)cc6)CC5)CC4)nn3)cn2)c1 (stereo partly drawn) [P-402]
3.7% | 0.0025 µM | N#Cc1cnc2c(cnn2-c2cc(N[C@H]3CCC[C@@H]3O)c(-n3cc([C@H]4CC[C@H](CCN5CCN(c6ccc(C7CCC(=O)NC7=O)cc6)CC5)CC4)nn3)cn2)c1 (stereo partly drawn) [P-403]
1.7% | 0.0076 µM | N#Cc1cnc2c(cnn2-c2cc(NC3CCOCC3)c(-n3cc([C@H]4CC[C@H](CCN5CCN(c6ccc(C7CCC(=O)NC7=O)cc6)CC5)CC4)nn3)cn2)c1 (stereo partly drawn) [P-406]
5.6% | 0.0358 µM | N#Cc1cnc2c(cnn2-c2cc(NCC3CCOCC3)c(-n3cc([C@H]4CC[C@H](CCN5CCN(c6ccc(C7CCC(=O)NC7=O)cc6)CC5)CC4)nn3)cn2)c1 (stereo partly drawn) [P-407]
7.8% | 0.0426 µM | N#Cc1cnc2c(cnn2-c2cc(NCC3COC3)c(-n3cc([C@H]4CC[C@H](CCN5CCN(c6ccc(C7CCC(=O)NC7=O)cc6)CC5)CC4)nn3)cn2)c1 (stereo partly drawn) [P-408]
8.3% | 0.0825 µM | N#Cc1cnc2c(cnn2-c2cc(OC3CC3)c(-n3cc([C@H]4CC[C@H](CCN5CCN(c6ccc(C7CCC(=O)NC7=O)cc6)CC5)CC4)nn3)cn2)c1 (stereo partly drawn) [P-409]
90.4% | 1 µM | N#Cc1cnc2c(cnn2-c2cc(OCC3CCOCC3)c(-n3cc([C@H]4CC[C@H](CCN5CCN(c6ccc(C7CCC(=O)NC7=O)cc6)CC5)CC4)nn3)cn2)c1 (stereo partly drawn) [P-411]
15.2% | 0.16 µM | N#Cc1cnc2c(cnn2-c2cc(NC3CCCC3)c(-n3cc([C@H]4CC[C@H](CCN5CCN(c6ccc(N7CCC(=O)NC7=O)cc6)CC5)CC4)nn3)cn2)c1 [P-412]

LVL THP1 HTRF YMIN | DC50 | Compound
−1.3% | 0.0051 µM | C[C@H](C#N)Nc1cc(-n2ncc3cc(C#N)cnc32)ncc1-n1cc([C@H]2CC[C@H](CCN3CCC(c4ccn(C5CCC(=O)NC5=O)c(=O)c4)CC3)CC2)nn1 (stereo partly drawn) [P-413]
39.6% | 0.979 µM | C[C@H](C#N)Nc1cc(-n2ncc3cc(C#N)cnc32)ncc1-n1cc([C@H]2CC[C@H](CCN3CCN(Cc4ccc(N5CCC(=O)NC5=O)cc4)CC3)CC2)nn1 [P-422]
8.6% | 0.143 µM | C[C@H](C#N)Nc1cc(-n2ncc3cc(C#N)cnc32)ncc1-n1cc([C@H]2CC[C@H](CCN3CCN(c4ccc(N5CCC(=O)NC5=O)nn4)CC3)CC2)nn1 [P-423]
0.8% | 0.124 µM | C[C@H](C#N)Nc1cc(-n2ncc3cc(C#N)cnc32)ncc1C(=O)N[C@H]1CC[C@H](CCN2CCC(c3ccn(C4CCC(=O)NC4=O)c(=O)c3)CC2)CC1 (stereo partly drawn) [P-425]
−0.6% | 0.0032 µM | C[C@H](C#N)Nc1cc(-n2ncc3cc(C#N)c(N)nc32)ncc1-n1cc([C@H]2CC[C@H](CCN3CCN(c4ccc(N5CCC(=O)NC5=O)cn4)CC3)CC2)nn1 [P-428]
1.8% | 0.0013 µM | C[C@H](C#N)Nc1cc(-n2ncc3cc(C#N)cnc32)ncc1-n1cc([C@H]2CC[C@H](CCN3CC4(CC(c5ccc(N6CCC(=O)NC6=O)c(Cl)c5)C4)C3)CC2)nn1 [P-432]
37.6% | 0.7 µM | C[C@H](C#N)Nc1cc(-n2ncc3cc(C#N)cnc32)ncc1C(=O)N[C@H]1CC[C@H](CCN2CC3(CC(c4ccc(N5CCC(=O)NC5=O)cc4)C3)C2)CC1 [P-433]
1.9% | 0.0299 µM | C[C@H](C#N)Nc1cc(Nc2ncc(C#N)cc2Cl)ncc1-n1cc([C@H]2CC[C@H](CCN3CC4(CC(c5ccc(N6CCC(=O)NC6=O)cc5)C4)C3)CC2)nn1 [P-434]
−5.4% | 0.0003 µM | C[C@H](C#N)Nc1cc(-n2ncc3cc(C#N)cnc32)ncc1-n1cc([C@H]2CC[C@H](CCN3CCN(c4ccc(N5CCC(=O)NC5=O)c(F)c4)[C@H](C)C3)CC2)nn1 [P-436]
0.0% | 0.0004 µM | C[C@H](C#N)Nc1cc(-n2ncc3cc(C#N)cnc32)ncc1-n1cc([C@H]2CC[C@H](CCN3CCN(c4ccc(N5CCC(=O)NC5=O)c(Cl)c4)[C@H](C)C3)CC2)nn1 [P-437]
2.2% | 0.0034 µM | C[C@H](C#N)Nc1cc(-n2ncc3cc(C#N)cnc32)ncc1-n1cc([C@H]2CC[C@H](CCN3CCN(c4ncc(N5CCC(=O)NC5=O)cn4)[C@H](C)C3)CC2)nn1 [P-438]
11.2% | 0.0924 µM | C[C@H](C#N)Nc1cc(-n2ncc3cc(C#N)cnc32)ncc1-n1cc([C@H]2CC[C@H](CCN3CCC4(C3)CN(c3ccc(N5CCC(=O)NC5=O)cc3)C4)CC2)nn1 [P-439]
2.9% | 0.0537 µM | C[C@H](C#N)Nc1cc(-n2ncc3cc(C#N)cnc32)ncc1-n1cc([C@H]2CC[C@H](CCN3CCN(c4cnc(N5CCC(=O)NC5=O)cn4)[C@H](C)C3)CC2)nn1 [P-440]
−0.1% | 0.0026 µM | CC[C@@H]1CN(CC[C@H]2CC[C@H](c3cn(-c4cnc(-n5ncc6cc(C#N)cnc65)cc4N[C@H](C)C#N)nn3)CC2)CCN1c1ccc(N2CCC(=O)NC2=O)cc1 [P-441]
−2.0% | 0.0044 µM | CC[C@H]1CN(CC[C@H]2CC[C@H](c3cn(-c4cnc(-n5ncc6cc(C#N)cnc65)cc4N[C@H](C)C#N)nn3)CC2)CCN1c1ccc(C2CCC(=O)NC2=O)cc1 (stereo partly drawn) [P-442]
−0.6% | 0.0045 µM | COc1cc(N2CCN(CC[C@H]3CC[C@H](c4cn(-c5cnc(-n6ncc7cc(C#N)cnc76)cc5N[C@H](C)C#N)nn4)CC3)CC2)ccc1N1CCC(=O)NC1=O [P-443]
−1.6% | 0.0052 µM | C[C@H](C#N)Nc1cc(-n2ncc3cc(C#N)cnc32)ncc1-n1cc([C@H]2CC[C@H](CCN3CC4(CC(c5ccc(N6CCC(=O)NC6=O)c(F)c5)C4)C3)CC2)nn1 [P-444]
4.0% | 0.0658 µM | CC[C@H]1CN(CC[C@H]2CC[C@H](c3cn(-c4cnc(-n5ncc6cc(C#N)cnc65)cc4N[C@H](C)C#N)nn3)CC2)CCN1c1ccc(N2CCC(=O)NC2=O)cc1 [P-445]
−1.4% | 0.0014 µM | CC[C@@H]1CN(CC[C@H]2CC[C@H](c3cn(-c4cnc(-n5ncc6cc(C#N)c(N)nc65)cc4N[C@H](C)C#N)nn3)CC2)CCN1c1ccc(N2CCC(=O)NC2=O)cn1 [P-446]

From patent US20240109881A1, “Heteroaryl Compounds as Ligand Directed Degraders of IRAK4” (Bristol-Myers Squibb Company, priority 2022, published 2024)
